Experimental findings from patent US7091347B2, “Bicyclic pyridine and pyrimidine p38 kinase inhibitors” (Roche Palo Alto LLC, priority 2002, dated 2006) are described below.

One series has as its target T1, p38 MAP kinase (UniProt Q16539).
T1 construct: fused on or other part: A His tag is implied by purification on a nickel column
Nature of the series: Inhibition of p-38 (MAP) kinase in vitro assay (transfer of γ-33P from ATP to Myelin Basic Protein). The following applies: phosphorylated recombinant p38 MAP kinase, MBP substrate, γ-33P-ATP, 30° C. In kind it is biochemical. The procedure: The p-38 MAP kinase inhibitory activity of compounds of this invention in vitro was determined by measuring the transfer of the y-phosphate from γ-^33P-ATP by p-38 kinase to Myelin Basic Protein (MBP), using the a minor modification of the method described in Ahn, N. G.; et al. J. of Biol. Chem. Vol. 266(7), 4220–4227, (1991)
The phosphorylated form of the recombinant p38 MAP kinase was expressed with SEK-1 and MEKK in E. Coli (see, Khokhlatchev, A. et al. J. of Biol. Chem. Vol. 272(17), 11057–11062, (1997) and then purified by affinity chromatography using a Nickel column.
The phosphorylated p38 MAP kinase was diluted in kinase buffer (20 mM 3-(N-morpholino)propanesulfonic acid, pH 7.2, 25 mM β-glycerol phosphate, 5 mM ethylene glycol-bis(beta-aminoethyl ether)-N,N,N′,N′-tetraacetic acid, 1 mM sodium vanadate, 1 mM dithiothreitol, 40 mM magnesium chloride). Test compound dissolved in DMSO or only DMSO (control) was added and the samples were incubated for 10 min. at 30° C. The kinase reaction was initiated by the addition of a substrate cocktail containing MBP and γ-^33P-ATP. After incubating for an additional 20 min. at 30° C., the reaction was terminated by adding 0.75% phosphoric acid. The phosphorylated MBP was then separated from the residual γ-^33P-ATP using a phosphocellulose membrane (Millipore, Bedfrod, Mass.) and quantitated using a scintillation counter (Packard, Meriden, Conn.).
The p-38 inhibitory activities (expressed as IC50, the concentration causing 50% inhibition of the p-38 enzyme being analyzed) of the compounds listed in Table 1 in the specification are between 0.01 μM and 10 μM.

Broadly, the melting point is the temperature, or range, at which the solid turns liquid. As a reminder, the IC50 is the point on the concentration scale where inhibition reaches its midpoint.

Structures can show the parent of a compound that is named as a salt.

`Fc1ccccc1Cc1cc2cnc(NC3CCOCC3)nc2s1` (as salt: hydrochloride) [Compound 25, 2-(tetrahydropyran-4-ylamino)-6-[(2-fluorophenyl)methyl]thieno[2,3-d]pyrimidine] displayed a melting point of 217 to 219 °C.

The compound `O=C(c1ccccc1)c1cc2cnc(N[C@H]3CC[C@H](O)CC3)nc2s1` [Compound 1] came in with a melting point of 102.6 to 103.8 °C. Further, the IC50 on p38 MAP kinase is 104 nM.

The compound `Cl.O=C(c1ccccc1)c1cc2cnc(NC3CCOCC3)nc2s1` [Compound 3] returned a melting point of 219.5 to 220.5 °C. For the same compound, the half-inhibitory concentration (IC50) on p38 MAP kinase was determined as 221 nM.

As for `O=C(c1cc2cnc(NC3CCOCC3)nc2s1)c1ccccc1F` [Compound 9, 2-(tetrahydropyran-4-ylamino)-6-(2-fluorobenzoyl)thieno[2,3-d]pyrimidine], the melting point lay in the range of 195.2 to 195.5 °C.

The compound `CS(=O)(=O)N1CCC(Nc2ncc3cc(C(O)c4ccccc4)sc3n2)CC1.Cl` (centres unmarked) [Compound 23] showed a melting point of 152.2 to 162.1 °C. Further, the IC50 on p38 MAP kinase came to 128 nM.

Turning to `c1ccc(Cc2cc3cnc(NC4CCCC4)nc3o2)cc1` [Compound 30, 2-(cyclopentylamino)-6-benzyl-furano[2,3-d]pyrimidine], the 50% inhibitory concentration (IC50) at p38 MAP kinase is 744 nM.

As for `Cn1c(Cc2ccccc2)cc2cnc(NC3CCCC3)nc21` [Compound 33, 2-(cyclopentylamino)-6-benzyl-7-methyl-pyrrolo[2,3-d]pyrimidine], the IC50 on p38 MAP kinase was found to be 135 nM.

As to `Fc1ccc(Sc2cc3cnc(NC4CCOCC4)nc3s2)c(F)c1` [Compound 41, [6-(2,4-Difluorophenylsulfanyl)thieno[2,3-d]pyrimidin-2-yl]-(tetrahydropyran-4-yl)-amine], at p38 MAP kinase, the IC50 is 226 nM.
